Measurements taken from patent US20130123355A1, “Fatty acids and metal ions compositions and uses thereof” (priority 2011, published 2013).

How the values were obtained:
rats = test: T-maze test (forced alternation or left-right discrimination task); assay type: in vivo; conditions: diet
Experimental: Mg-DHA composition is provided as supplement in standard rat feed. On an average, rats consume about 50 mg/Kg/day of elemental Mg, on a feeding schedule so as to maintain 85% of its free-feeding weight. In the control group, rats are fed either DHA or magnesium citrate (Mg Citrate) supplemented diet on schedule similar to test group. After habituation to the apparatus and pre-training, each rat undergoes 4 trials of standard T-maze test (Shoji et al, J. Vis. Exp. (60), e3300, DOI: 10.3791/3300 (2012)) on day 1 or day 21 of Mg-DHA, Mg Citrate, or DHA feeding. Rats are subject to either forced alternation task or left-right discrimination task. Behaviors in the T-maze apparatus is recorded and statistically analyzed by two way repeated measures analysis of variance. […] In another set of experiments, rats fed with DHA, Mg Citrate, or Mg-DHA for 21 days are subject to novel-object-location (NOL) tests.
Mg-DHA composition is provided as supplement in standard rat feed. On an average, rats consume about 50 mg/Kg/day of elemental Mg, on a feeding schedule so as to maintain 85% of its free-feeding weight. In the control group, rats are fed DHA-LysoPC or Mg Citrate supplemented diet on schedule similar to test group. After habituation to the apparatus and pre-training, each rat undergoes 4 trials of standard T-maze test (Shoji et al, J. Vis. Exp. (60), e3300, DOI: 10.3791/3300 (2012)) on day 1 or day 21 of Mg-DHA-LysoPC, Mg Citrate or DHA-LysoPC feeding. Rats are subjected to either forced alternation task or left-right discrimination task. Behaviors in the T-maze apparatus is recorded and statistically analyzed by two way repeated measures analysis of variance. […] In another set of experiments, rats fed with Mg Citrate, DHA-LysoPC, or Mg-DHA-LysoPC for 21 days are subjected to novel-object-location (NOL) tests.
Mg-EPA composition is provided as supplement in standard rat feed. On an average, rats consume about 50 mg/Kg/day of elemental Mg, on a feeding schedule so as to maintain 85% of its free-feeding weight. In the control group, rats are fed EPA or Mg Citrate supplemented diet on scheduled similar to test group. After habituation to the apparatus and pre-training, each rat undergoes 4 trials of standard T-maze test (Shoji et al, J. Vis. Exp. (60), e3300, DOI: 10.3791/3300 (2012)) on day 1 or day 21 of Mg-EPA, Mg Citrate, or EPA feeding. Rats are subjected to either forced alternation task or left-right discrimination task. Behaviors in the T-maze apparatus is recorded and statistically analyzed by two way repeated measures analysis of variance. […]
Zn-DHA composition is provided as supplement in standard rat feed. […] Behaviors in the T-maze apparatus is recorded and statistically analyzed by two way repeated measures analysis of variance. […]

human subjects = test: Montreal Cognitive Assessment and Mini-Mental State Examination; assay type: in vivo
Experimental: (§1) Mg-DHA composition is prepared and formulated as capsules to provide a daily dose of 150 mg of elemental magnesium. The human subjects are divided into control and test groups and provided DHA, Mg Citrate (equivalent to 150 mg of elemental magnesium) or Mg-DHA capsules for 30 consecutive days. On day 1 and day 30, two cognitive tests, Montreal Cognitive Assessment and Mini-Mental State Examination (Int J Geriatr Psychiatry. 2010 February; 25(2):111-20) are administered.
as §1, with “Mg-DHA-LysoPC” for “Mg-DHA”, “either DHA-LysoPC,” for “DHA,”, “magnesium), Mg-DHA-LysoPC” for “magnesium) or Mg-DHA”
Mg-EPA composition is prepared and formulated as capsules to provide a daily dose of 150 mg of elemental magnesium. The human subjects are divided into control and test groups and provided EPA, Mg Citrate (equivalent to 150 mg elemental magnesium), or Mg-EPA capsules for 30 consecutive days. On day 1 and day 30, two cognitive tests, Montreal Cognitive Assessment and Mini-Mental State Examination (Int J Geriatr Psychiatry. 2010 February; 25(2):111-20) are administered.
as §1, with “Zn-DHA or zinc gluconate” for “Mg-DHA”, “30” for “a daily dose of 150”, “zinc.” for “magnesium.”, “zinc gluconate,” for “Mg Citrate (equivalent to 150 mg of elemental magnesium)”, “Zn-DHA capsules, 3 times a day” for “Mg-DHA capsules”
(§2) Zn-DHA or zinc gluconate composition is prepared and formulated as capsules to provide 30 mg of elemental zinc. The human subjects are divided into control and test groups and provided DHA-LysoPC, zinc gluconate, or Zn-DHA-LysoPC capsules, 3 times a day for 30 consecutive days. On day 1 and day 30, two cognitive tests, Montreal Cognitive Assessment and Mini-Mental State Examination (Int J Geriatr Psychiatry. 2010 February; 25(2):111-20) are administered.
as §2, with “provide a daily dosage of” for “provide”, “provided EPA,” for “provided DHA-LysoPC,”, “or Zn-EPA capsules” for “or Zn-DHA-LysoPC capsules, 3 times a day”

[1] = about 1 mg/kg body weight/day elemental Zn, day 1 or day 21, compared with the fatty acid alone or zinc gluconate
[2] = capsules providing 30 mg elemental zinc, 30 consecutive days, compared with the fatty acid alone or zinc gluconate
[3] = about 50 mg/Kg/day elemental Mg, day 1 or day 21, compared with the fatty acid alone or Mg Citrate
[4] = capsules, 150 mg elemental magnesium daily for 30 days, compared with the fatty acid alone or Mg Citrate

CC/C=C\C/C=C\C/C=C\C/C=C\C/C=C\CCCC(=O)[O-].CC/C=C\C/C=C\C/C=C\C/C=C\C/C=C\CCCC(=O)[O-].[Zn+2] [Zn-EPA]
working and reference memory (rats; [1]): statistically significant increase
cognitive tests (Montreal Cognitive Assessment, Mini-Mental State Examination) (human subjects; [2]): statistically significant improvement

CC/C=C\C/C=C\C/C=C\C/C=C\C/C=C\C/C=C\CCC(=O)[O-].CC/C=C\C/C=C\C/C=C\C/C=C\C/C=C\C/C=C\CCC(=O)[O-].[Zn+2] [Zn-DHA]
working and reference memory (rats; [1]): statistically significant increase
cognitive tests (Montreal Cognitive Assessment, Mini-Mental State Examination) (human subjects; [2]): statistically significant improvement

CC/C=C\C/C=C\C/C=C\C/C=C\C/C=C\CCCC(=O)[O-].CC/C=C\C/C=C\C/C=C\C/C=C\C/C=C\CCCC(=O)[O-].[Mg+2] [Mg-EPA]
working and reference memory (rats; [3]): statistically significant increase
cognitive tests (Montreal Cognitive Assessment, Mini-Mental State Examination) (human subjects; [4]): statistically significant improvement

CC/C=C\C/C=C\C/C=C\C/C=C\C/C=C\C/C=C\CCC(=O)[O-].CC/C=C\C/C=C\C/C=C\C/C=C\C/C=C\C/C=C\CCC(=O)[O-].[Mg+2] [Mg-DHA]
working and reference memory (rats; [3]): statistically significant increase
cognitive tests (Montreal Cognitive Assessment, Mini-Mental State Examination) (human subjects; [4]): statistically significant improvement
